We go through 64 molecules from a melting point compilation (Tetko et al.; mined from patent text by program, amines drawn as free bases though some values may be those of a salt).

As a reminder, the melting point is the temperature, or range, at which the solid turns liquid. `Cc1c(-c2ccccc2)n(-c2ccccc2Cl)c(-c2ccccc2)cc1=O`: the melting point lay in the range of 228 to 231 °C.
The molecule `O=C(c1ccccc1)N1CCc2[nH]c3cccc(CCCO)c3c2CC1` registered a melting point of 144 to 147 °C.
Turning to `COc1ccc([N+](=O)[O-])cc1C(O)OC` (centres undefined), the melting point fell in the range of 147 to 148 °C.
The molecule `COc1ccc(F)cc1OCCCl` registered a melting point of 35 to 38 °C.
In the case of `COC(=O)c1snc(-c2ccccc2)c1C(=O)OC` it was 70 to 71.5 °C; in that of `O=C(OCCCl)c1ccccc1CS(=O)(=O)Cl`, 66 to 67 °C; in that of `CC(C)CCC(=O)NC(C)(Cc1c[nH]c2ccccc12)C(=O)NC(Cc1ccccc1)C(N)=O` (racemic), 170 to 171 °C.
As for `CC(C)(CO)Nc1nc(-c2ccc(C#N)c(F)c2)cs1`, the melting point was in the range of 128 to 130 °C.
In the case of `COc1nc(NCCCN2CCOCC2)nc(OC)c1NC(=O)c1csc(Oc2cccc(C(C)(C)C)c2)n1` it was 68 °C; in that of `CN(C)CC1CN(c2ccccc2)NC1=O` (centres undefined), 118 to 119 °C; in that of `CCOC(=O)NN=COC(CC)NC` (centres undefined), 104 °C.
With `CCOP(=O)(Cc1ccc(NC(=O)CCc2conc2-c2ccc(Cl)cc2)cc1)OCC`, the melting point was 88 to 90 °C.
In turn, `O=C(CCCCCCCCCCS(=O)c1ccccc1[N+](=O)[O-])OCc1ccccc1` (centres undefined) displayed a melting point of 37 to 38 °C.
Consider `O=C(CCC(=O)N1CCCCC1)c1ccccc1`, for which the melting point lay within 52 to 54 °C.
In the case of `Cc1c(Cl)ccc(S(=O)(=O)Cl)c1C#N` it was 69 to 72 °C.
For the molecule `COc1c2c(c(OC)c(OC)c1OC)CC(CCCCCCCCN1C(=O)c3ccccc3C1=O)C2`, the melting point was in the range of 64 to 65 °C.
Molecule `O=C(O)CCCCNS(=O)(=O)c1ccc(N2CCCCCCC2)cc1` yielded a melting point of 149 to 150 °C.
As to `CC(=O)NC[C@H]1CN(c2ccc(-c3nnc(CCCl)s3)c(F)c2)C(=O)O1`, the melting point fell in the range of 178 to 180 °C.
On to `CCCc1c(OCCOCCOc2ccc3ccc(OCC(=O)OC)cc3c2C(C)=O)ccc(C(C)=O)c1O`, for which the melting point lay within 89 to 90 °C.
As for `CC1(O)CCC2(C)C(CCC3C2CCC2(C)C(c4cc(CO)on4)CCC32)C1` (centres undefined), the figure is 198 to 200 °C.
For `O=C1C=C(Nc2cccc(F)c2)CCN1`, the melting point lay in the range of 188 to 190 °C.
Take `Cn1cc(C2=C(c3c4n(c5ccccc35)CCC(CNC(=O)OC(C)(C)C)C4)C(=O)N(O)C2=O)c2ccccc21` (centres undefined): the melting point was in the range of 238 to 240 °C.
`COc1ccc(C2=NN(C3CCN(c4ccc([N+](=O)[O-])cc4)CC3)C(=O)[C@@H]3CC=CC[C@H]23)cc1OC` displayed a melting point of 196 to 197 °C.
`CC(C)(C)OC(=O)c1nc(-c2ccc([N+](=O)[O-])cc2)[nH]c1-c1ccncc1` yielded a melting point of over 280 °C.
In the case of `Cc1ccccc1-c1noc2c3c(c(Cl)cc12)OC(C(=O)O)C3` (centres undefined), the melting point was 192 to 195 °C.
In the case of `COc1ccc(-n2nc(C(C)CCO)cc2-c2ccc(Cl)cc2)cc1` (centres undefined), the melting point fell in the range of 97.5 to 98.5 °C.
On to `Nc1ccc(-c2ccncc2)cn1`, for which the melting point was in the range of 192 to 195 °C.
Turning to `FCCOc1ccc(COCOc2ccc(Cl)cc2)cc1`, the melting point is 60.7 to 61.6 °C.
For `CC(=O)Nc1ncc(CCc2ccc(N)cc2)s1`, the melting point lay in the range of 218 to 220 °C.
The molecule `CN1CCC(C2Cc3c(O)cccc3C(=O)N2)CC1` (centres undefined) displayed a melting point of 216 to 218 °C.
Molecule `c1ccc(Cn2c3ccccc3c3cc(-c4nc(C5CC5)no4)sc32)cc1` registered a melting point of 140 to 141 °C.
In the case of `CC(Oc1ccc([N+](=O)[O-])cc1)c1c(F)ccc(F)c1F` (centres undefined) it was 120 °C.
Molecule `CC(C)(C)c1cc(-c2c[nH]c(S(C)(=O)=O)n2)cc(C(C)(C)C)c1O` displayed a melting point of 119 to 120 °C.
In turn, `COc1ccc2c(C)c(-c3c(OC)cccc3OC(C)=O)c(=O)oc2c1` registered a melting point of 125 to 126 °C.
Molecule `Cc1nc2n(c(=O)c1CCCl)CCCN2Cc1ccccc1` yielded a melting point of 114 °C.
In the case of `CN(C(CCn1c(=O)[nH]c2ccsc2c1=O)C(=O)O)S(=O)(=O)c1ccc(Oc2ccccc2)cc1` (centres undefined) it was 218 to 219 °C; in that of `Cc1ccc(NC(=O)OC(C)(C)C)c(C)c1`, 90 to 91 °C.
Regarding `COC(=O)Cn1c(C(=O)OCc2ccccc2)cc2ccccc21`, the melting point was found to be 94 °C.
In the case of `CN(C)C(=O)c1ccccc1Sc1ccc([N+](=O)[O-])cc1[N+](=O)[O-]` it was 144 to 145 °C; in that of `Cc1cc2c(c3c1NC(=O)CC3)OC(CN=[N+]=[N-])C2` (centres undefined), 146 to 149 °C.
On to `COc1cc(Br)c(CCC#N)cc1OC`, for which the melting point was 78 to 80 °C.
As for `CCOC(=O)C(Cc1ccc(Cl)c(OC(F)(F)C(F)F)c1)C(=O)c1ccc(F)cc1` (centres undefined), the figure is 73 to 74 °C; as for `CC(N=C(NN)NN)C(=O)O` (centres undefined), 175 to 177 °C; as for `Cc1ccc(=NC#N)n(-c2cccc(C(F)(F)F)c2)c1`, 165 °C.
The molecule `CC(C)(O)c1ccc(-c2ccc(C(CC3CCOCC3)c3ccc(S(=O)(=O)C4CC4)cc3)[nH]2)nc1` (centres undefined) came in with a melting point of 112 to 114 °C.
The molecule `CC(C)(C)OC(=O)N1CCC(ON=C(c2ccccc2)c2cc3ccncc3[nH]2)C1` (centres undefined) showed a melting point of 80 to 82 °C.
Turning to `O=C(NCC1CCN(CC2(C(=O)O)CCCCC2)CC1)N1C(=O)C2(CCCC2)c2ccccc21`, the melting point came out at 160 °C.
Molecule `C=CCN1C2CCC3C1CCC2N3C(c1ccc(C(=O)N2CCCCC2)cc1)c1cccc(O)c1` (centres undefined) came in with a melting point of 70 to 73 °C.
`O=C(Nc1ccc(Cl)cc1)C1=C(O)CS(=O)(=O)N(Cc2ccc(Cl)cc2)c2ccccc21`: the melting point is 182 to 183 °C.
For `CCCCCCCCc1ccc(CCC(C)(CCOC(C)=O)NC(C)=O)cc1` (centres undefined), the melting point is 137 to 141 °C.
As for `OCC(CC(F)(F)F)Nc1nc(-c2ccc(Br)cc2)cs1` (centres undefined), the figure is 120 to 121 °C; as for `CCCCCCCCCCCCCCCCOc1c2ncnc(SCC(=O)OCCCC)c2nn1C`, 64 to 67 °C; as for `O=C(Nc1cccc(S(=O)(=O)N2CCOCC2)c1)c1cnn2c(C(F)(F)F)cc(-c3ccc(C(F)(F)F)cc3)nc12`, 233 °C.
In the case of `CCOC(=O)c1nn(-c2ccc(Cl)cc2)c(=O)c2c(N)scc12` it was 189 to 191 °C; in that of `O=C1CC2OC(CS(=O)c3ccccc3)CN12` (racemic), 119 to 120 °C.
`COc1cc(OC)nc(Oc2cccc3c2C(=O)OC3OC(C)=O)n1` (centres undefined) showed a melting point of 119 to 120 °C.
Regarding `CCNc1nc(-c2ccc(NC(=O)NCc3cccnc3)cc2)ccc1C(=O)NCCN1CCCCC1`, the melting point is 164 to 165 °C.
As for `COC(=O)c1ccc(Cl)cc1NS(C)(=O)=O`, the figure is 126 to 128 °C; as for `O=C(O)CCc1oc(NC2CCCCC2)nc1-c1ccc(Cl)cc1`, 237 to 238 °C; as for `ON=C1CCC(c2ccccc2F)c2ccccc21` (centres undefined), 120 °C.
With `Nc1ccc(F)c(-c2ccncc2)n1`, the melting point is 189 to 190 °C.
Regarding `CCOC(=O)c1cc(Cl)cc(N)c1Cl`, the melting point was in the range of 63 to 65 °C.
Take `C=CC(=O)Oc1ccc(-c2cccc(F)c2F)cc1`: the melting point was 88.4 to 90 °C.
In the case of `Nc1ncnc2c1nc(OC(=O)OCc1ccccc1)n2Cc1ccccc1` it was over 300 °C.
